# Source: patent publication US6485929B1, “Method for inhibiting CD95-independent apoptosis in AIDS” (Deutsches Krebsforschungzentrum Stiftung des offentlichen …, priority 1998, dated 2002)
# Test system: HPB-ALL cells
# Experiment: Inhibition of CD95-independent apoptosis induced by anti-CXCR4 antibody (12G5) in HPB-ALL cells
# Assay type: cell-based
# Details: HPB-ALL cells incubated with 250 nM SDF-1α at 37° C. for 30 minutes, then induction with anti-CXCR4 antibody 12G5
# Description: 1×10^5 HPB-ALL cells are incubated with 5 μg/ml mouse anti-CD4 antibody (HP2/6) and mouse anti CXCR4 antibody (12G5), respectively, at 37° C. for 15 minutes. Then, the bound antibodies are reacted with sheep anti-mouse antibodies (100 μg/ml, Boehringer). Apoptosis detection is carried out in which an FSC/SSC analysis is run in an FACScan cytometer at various times (cf. FIG. 1). HPB-ALL cells are incubated with 250 nM SDF-1α at 37° C. for 30 minutes. The cells are then subjected to an apoptosis induction using the mouse anti-CXCR4 antibody (12G5), as described above under item I. (a).
substance,measurement,value
SDF-1α,Prevention of induction of CD95-independent apoptosis,can be prevented
